# Results reported in BindingDB's records for doi:10.1016/S0960-894X(00)80680-0 (1993).
# Experiment: Displacement of [125I]Bolton-Hunter-CCK-8 from guinea pig cortex Cholecystokinin type B receptor
row,SMILES,IC50
1,CN(C(=O)[C@H](CC(=O)O)NNC[C@H](CCCCNC(=O)C=Cc1ccc(O)cc1)NC(=O)[C@H](Cc1c[nH]c2ccccc12)NC(=O)OC(C)(C)C)[C@@H](Cc1ccccc1)C(N)=O [3-(N'-{(S)-2-[(S)-2-tert-Butoxycarbonylamino-3-(1H-indol-3-yl)-propionylamino]-6-[(Z)-3-(4-hydroxy-phenyl)-acryloylamino]-hexyl}-hydrazino)-N-((S)-1-carbamoyl-2-phenyl-ethyl)-N-methyl-succinamic acid],5 µM
2,CC(C)(C)OC(=O)N[C@@H](Cc1c[nH]c2ccccc12)C(=O)N[C@@H](CCCCNC(=O)C=Cc1ccc(O)cc1)CNN[C@@H](CC(=O)O)C(=O)N[C@@H](Cc1ccccc1)C(N)=O [3-(N'-{(S)-2-[(S)-2-tert-Butoxycarbonylamino-3-(1H-indol-3-yl)-propionylamino]-6-[(Z)-3-(4-hydroxy-phenyl)-acryloylamino]-hexyl}-hydrazino)-N-((S)-1-carbamoyl-2-phenyl-ethyl)-succinamic acid],3.8 µM
3,"Cc1ccccc1NC(=O)NCCCC[C@H](NC(=O)[C@H](Cc1c[nH]c2ccccc12)NC(=O)OC(C)(C)C)C(=O)N[C@H](CNN[C@@H](Cc1ccccc1)C(N)=O)CC(=O)O [3-{2-[2-tert-Butoxycarbonylamino-3-(1H-indol-3-yl)-propionylamino]-6-[(S)-3-((1S,2S)-o-tolyl)-ureido]-hexanoylamino}-4-[N'-((S)-1-carbamoyl-2-phenyl-ethyl)-hydrazino]-butyric acid]",> 10 µM
4,Cc1ccccc1NC(=O)NCCCC[C@H](NNC[C@H](Cc1c[nH]c2ccccc12)NC(=O)OC(C)(C)C)C(=O)N[C@@H](CC(=O)O)C(=O)N[C@@H](Cc1ccccc1)C(N)=O [(S)-3-[(S)-2-[N'-((S)-2-tert-Butoxycarbonylamino-3-1H-indol-3-yl-propyl)-hydrazino]-6-(3-o-tolyl-ureido)-hexanoylamino]-N-((S)-1-carbamoyl-2-phenyl-ethyl)-succinamic acid],2.5 µM
5,CC(C)(C)OC(=O)N[C@@H](Cc1c[nH]c2ccccc12)C(=O)N[C@@H](CCCCNC(=O)C=Cc1ccc(O)cc1)C(=O)N[C@H](CNN[C@@H](Cc1ccccc1)C(N)=O)CC(=O)O [(S)-3-{2-[2-tert-Butoxycarbonylamino-3-(1H-indol-3-yl)-propionylamino]-6-[(S)-3-((S)-4-hydroxy-phenyl)-acryloylamino]-hexanoylamino}-4-[N'-((S)-1-carbamoyl-2-phenyl-ethyl)-hydrazino]-butyric acid],7 µM
6,"Cc1ccccc1NC(=O)NCCCC[C@@H](CNN[C@@H](CC(=O)O)C(=O)N(C)[C@@H](Cc1ccccc1)C(N)=O)NC(=O)[C@H](Cc1c[nH]c2ccccc12)NC(=O)OC(C)(C)C [(S)-3-{N'-[2-((3aS,7S)-2-tert-Butoxycarbonylamino-3-1H-indol-3-yl-propionylamino)-6-(3-o-tolyl-ureido)-hexyl]-hydrazino}-N-((S)-1-carbamoyl-2-phenyl-ethyl)-N-methyl-succinamic acid]",> 10 µM
